According to ChEMBL document CHEMBL1201862, “PubChem BioAssay data set” (2004):
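Exposure lasted 48 hours, with cells grown in 96-well plates and compounds tested at five concentrations. GI50: concentration for 50% inhibition of growth.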 Activity calls are given as the source filed them. Rule as the data show it: active = GI50 up to about 1.1 µM and inactive = higher.

Tests used:
Assay in all cases: NCI anticancer screen, dose series, 48 h
786-0 = system: 786-0
A498 = system: A498
A549 = system: A549
ACHN = system: ACHN
BT-549 = system: BT-549
CAKI-1 = system: CAKI-1
CCRF-CEM = system: CCRF-CEM
COLO 205 = system: COLO 205
DU-145 = system: DU-145
EKVX = system: EKVX
HCC 2998 = system: HCC 2998
HCT-116 = system: HCT-116
HCT-15 = system: HCT-15
HL-60 = system: HL-60
HOP-62 = system: HOP-62
HOP-92 = system: HOP-92
HT-29 = system: HT-29
Hs-578T = system: Hs-578T
IGROV-1 = system: IGROV-1
K562 = system: K562
KM12 = system: KM12
LOX IMVI = system: LOX IMVI
M14 = system: M14
MCF7 = system: MCF7
MDA-MB-231 = system: MDA-MB-231
MDA-MB-435 = system: MDA-MB-435
MOLT-4 = system: MOLT-4
Malme-3M = system: Malme-3M
NCI-H226 = system: NCI-H226
NCI-H23 = system: NCI-H23
NCI-H460 = system: NCI-H460
NCI-H522 = system: NCI-H522
NCI/ADR-RES = system: NCI/ADR-RES
OVCAR-3 = system: OVCAR-3
OVCAR-4 = system: OVCAR-4
OVCAR-5 = system: OVCAR-5
OVCAR-8 = system: OVCAR-8
PC-3 = system: PC-3
RPMI-8226 = system: RPMI-8226
RXF 393 = system: RXF 393
SF-268 = system: SF-268
SF-295 = system: SF-295
SF-539 = system: SF-539
SK-MEL-28 = system: SK-MEL-28
SK-MEL-2 = system: SK-MEL-2
SK-MEL-5 = system: SK-MEL-5
SK-OV-3 = system: SK-OV-3
SN12C = system: SN12C
SNB-19 = system: SNB-19
SNB-75 = system: SNB-75
SR = system: SR
SW-620 = system: SW-620
T47D = system: T47D
TK-10 = system: TK-10
U-251 = system: U-251
UACC-257 = system: UACC-257
UACC-62 = system: UACC-62
UO-31 = system: UO-31

CC(=O)C1=C(C)N(c2ccccc2)C2(O)C=CC(O)=C3C(=O)c4ccccc4C(=O)C312 (stereo not drawn)
GI50 (786-0): 20 µM (inactive)
GI50 (A498): 23 µM (inactive)
GI50 (A549): 15.3 µM (inactive)
GI50 (ACHN): 11.4 µM (inactive)
GI50 (BT-549): 13.2 µM (inactive)
GI50 (CAKI-1): 14.3 µM (inactive)
GI50 (CCRF-CEM): 3.73 µM (inactive)
GI50 (COLO 205): 6.18 µM (inactive)
GI50 (DU-145): 9.04 µM (inactive)
GI50 (EKVX): 18.2 µM (inactive)
GI50 (HCC 2998): 10.6 µM (inactive)
GI50 (HCT-116): 8.15 µM (inactive)
GI50 (HCT-15): 6.47 µM
GI50 (HL-60): 5.69 µM (inactive)
GI50 (HOP-62): 32.9 µM (inactive)
GI50 (HOP-92): 25.6 µM (inactive)
GI50 (HT-29): 4.7 µM (inactive)
GI50 (Hs-578T): 41.7 µM (inactive)
GI50 (IGROV-1): 8.91 µM (inactive)
GI50 (K562): 8.13 µM (inactive)
GI50 (KM12): 13.5 µM (inactive)
GI50 (LOX IMVI): 4.94 µM (inactive)
GI50 (M14): 20.3 µM (inactive)
GI50 (MCF7): 22.3 µM (inactive)
GI50 (MDA-MB-231): 17.7 µM (inactive)
GI50 (MDA-MB-435): 2.45 µM (inactive)
GI50 (MOLT-4): 8.28 µM (inactive)
GI50 (Malme-3M): 0.748 µM (active)
GI50 (NCI-H226): 25.5 µM (inactive)
GI50 (NCI-H23): 15.8 µM (inactive)
GI50 (NCI-H460): 8.87 µM (inactive)
GI50 (NCI-H522): 16.3 µM (inactive)
GI50 (NCI/ADR-RES): 3.36 µM (inactive)
GI50 (OVCAR-3): 3.52 µM (inactive)
GI50 (OVCAR-4): 20.9 µM (inactive)
GI50 (OVCAR-5): 15.8 µM (inactive)
GI50 (OVCAR-8): 9.18 µM (inactive)
GI50 (PC-3): 17.8 µM (inactive)
GI50 (RPMI-8226): 3.37 µM (inactive)
GI50 (RXF 393): 11.6 µM (inactive)
GI50 (SF-268): 20.2 µM (inactive)
GI50 (SF-295): 14.9 µM (inactive)
GI50 (SF-539): 21.1 µM (inactive)
GI50 (SK-MEL-28): 19 µM (inactive)
GI50 (SK-MEL-2): 15.3 µM (inactive)
GI50 (SK-MEL-5): 10.6 µM (inactive)
GI50 (SK-OV-3): 48.4 µM (inactive)
GI50 (SN12C): 10.6 µM (inactive)
GI50 (SNB-19): 17.1 µM (inactive)
GI50 (SNB-75): 35.2 µM (inactive)
GI50 (SR): 8.55 µM (inactive)
GI50 (SW-620): 7.64 µM (inactive)
GI50 (T47D): 8.75 µM (inactive)
GI50 (TK-10): 24.7 µM (inactive)
GI50 (U-251): 18 µM (inactive)
GI50 (UACC-257): 5.65 µM (inactive)
GI50 (UACC-62): 15.6 µM (inactive)
GI50 (UO-31): 16.3 µM (inactive)
